Numbers after ± are expanded uncertainties.
Conditions: Liquid, Closed cell (Static) method

SMILES	vapor or sublimation pressure (258.15 K)	vapor or sublimation pressure (273.15 K)	vapor or sublimation pressure (293.15 K)
FCF [difluoromethane]	488.1 ± 2.6 kPa	814 ± 3.3 kPa	1474.6 ± 4.8 kPa
COC [dimethyl ether]	152.9 ± 2.1 kPa	266.8 ± 2.2 kPa	509.3 ± 2.7 kPa

Source: the NIST ThermoML archive (doi:10.1021/je049789+)
